Read-outs that look alike come from different tables or passages of the source.
Experiments:
[1] = Cytotoxicity: inhibition of CD4+ T-cell (CEM) proliferation; type: cell-based; conditions: human, CEM/0 cells (CD4+ T-cells), 50 % cytostatic concentration, mean±SD, n=2-3
[2] = Chemical hydrolysis in aqueous phosphate buffer (PBS, pH 7.3); type: physicochemical; conditions: for half-life at 0.92 mM: phosphate buffered saline (PBS), read-out: PBS pH 7.3 t 1/2 (converted); for half-life at 0.92 mM / PBS pH 7.3 t 1/2: aqueous 25 mM phosphate buffer, pH 7.3, 37 °C, removal of AB group, n.h. = no hydrolysis observed through cleavage of AB-mask
Description: γ‐(AB,alkyl)‐NTP prodrugs 6 and γ‐alkyl‐NTPs 7 were incubated in aqueous phosphate buffer (PBS, 25 mM, pH 7.3), or were exposed to pig liver esterase (PLE) in phosphate buffer (PBS) and to human CD4^+ T‐lymphocyte cell extracts to study their stability and the product distribution. The hydrolysis mixtures were analyzed by means of analytical rp‐18‐HPLC. The calculated half‐lives of prodrugs 6 (Table 1, t 1/2) reflect the removal of the bioreversible AB group to yield γ‐alkyl‐NTPs 7. Possible hydrolysis pathways and products are summarized in Scheme 4.
As hydrolysis products, a predominant formation of γ‐alkyl‐d4TTPs 7 and a very small amount of d4TDP […] was detected (approximately 3 %). After consumption of the starting material, no further increase of d4TDP concentration was observed. This supports the hypothesis that only the double‐γ‐esterified d4TTP prodrugs 6 were prone to a bond breakage between the γ‐ and β‐phosphate. […] In contrast to previous studies with TriPPPro‐NTPs 5 containing a second cleavable mask (first generation NTP prodrugs),[ ^23 , ^24 , ^25 ] no d4TTP was detected in these studies using 6 or 7. A side reaction occurred during the studies using compounds 7 that led to the formation of thymine by the cleavage of the glycosidic bond as reported before.[ ^19 , ^22 ]
ProLab 300 from Schott Co.. Thermomixer: Eppendorf Thermomixer 5436 and CellMedia Thermoschüttler basic were used. […]
Chemical hydrolysis of prodrugs of γ-(AB,alkyl) d4TTP 6 as well as the γ-alkyl-NTPs 7,15:
Stock solutions (50mM in DMSO-d6) of compounds 6,7 were prepared. After dilution of 11 µL stock solution with 100 µL milliQ water and 189 µL DMSO-d6 to 1.9mM hydrolysis solutions the reaction was started by addition of 300 µL phosphate buffer saline (PBS, 50mM, pH 7.3). The solution was incubated at 37 C in a thermomixer. An initial aliquot (25 µL) was taken directly and analyzed by analytical HPLC at 265-266 nm. Further aliquots were taken for monitoring the kinetic hydrolysis. The exponential decay curves (pseudo-first order) based on absolute integral values were calculated with commercially available software (OriginPro 9.0G) and yielded the half-lives t1/2 of the prodrugs via one determination. […]
(§1) The calculation of t1/2 was performed analogously to that for the chemical hydrolysis studies.
(§2) Preparation of cell extracts: Human CD4+ T-lymphocyte CEM cells were grown in RPMI-1640-based cell culture medium to a final density of ~3·10^6 cells/ml. Then, cells were centrifuged for 10 min at 1,250 rpm at 4 °C, washed twice with cold PBS, and the pellet was re-suspended at 10^8 cells/ml and sonicated (Hielscher Ultrasound Techn., 100% amplitude, 3·times for 10 sec) to destroy cell integrity. The resulting cell suspension was then centrifuged at 10,000 rpm to remove cell debris, and the supernatant divided in aliquots before being frozen at -80 C and used.
(§3) (1 picture or pasted object on this page, not shown here)

[3] = system: HIV-1(IIIB); assay: Anti-HIV activity assay, HIV-1-infected wild-type CEM/0 cell cultures; type: cell-based; conditions: Human immunodeficiency virus 1, IIIB, CCRF-CEM, read-out: EC50 CEM/0 HIV-1
Description: γ‐(AB,alkyl)‐d4TTP prodrugs 6 and the γ‐alkyl‐d4TTPs 7 were evaluated for their ability to inhibit the replication of HIV in HIV‐1‐ or HIV‐2‐infected wild‐type CEM/0 as well as mutant thymidine‐kinase‐deficient CEM cell cultures (CEM/TK^−). For comparison, two TriPPPro derivatives 5 were also included in this assay.
Anti-HIV activity assay: Inhibition of HIV-1(IIIB)- and HIV-2(ROD)-induced cytopathicity in wild-type CEM/0 and thymidine kinase-deficient CEM/TK- cell cultures was measured in microtiter 96-well plates containing ~3·105 CEM cells/mL infected with 100 CCID50 of HIV per milliliter and containing appropriate dilutions of the test compounds. After 4−5 days of incubation at 37 °C in a CO2-controlled humidified atmosphere, CEM giant (syncytium) cell formation was examined microscopically. […]
was defined as the compound concentration required to inhibit HIV-induced giant cell formation by 50%. […]
(§4) The result was visualized by fluorescence imaging. […]
as §4

[4] = system: pig liver esterase (PLE); assay: Enzymatic hydrolysis with pig liver esterase (PLE); type: in vitro ADME; conditions: pH 7.3, 37 °C; for half-life at 0.45 mM: pig liver esterase (PLE) in PBS, pig liver esterase in PBS, read-out: t 1/2 with PLE (cleavage of acyloxybenzyl masking unit); for cleavage of the alkyl residue by esterase: PLE in PBS
Description: Next, the enzymatic stability of prodrugs γ‐(AB‐C4,alkyl‐C18)‐d4TTP 6 cz and γ‐(AB‐C15,alkyl‐C4)‐d4TTP 6 ew was examined by incubation with PLE, which is used as a model enzyme for studying the esterase activation of the prodrugs, in PBS, pH 7.3 at 37 °C. […] This proves our initial concept of introducing an enzyme (esterase)‐stable group to the γ‐phosphate unit.
ProLab 300 from Schott Co.. Thermomixer: Eppendorf Thermomixer 5436 and CellMedia Thermoschüttler basic were used.
Fluorescent Imager: ChemiDoc™ MP Imaging System (170-8280) from Bio-Rad Co. was used for primer extension study.
Electrophoresis: Thermo Fisher OwlTM S4S Aluminum-Backed Sequencer System. Power supply: Consort EV2230 Gel […]
Further aliquots were taken for monitoring the kinetic hydrolysis. The exponential decay curves (pseudo-first order) based on absolute integral values were calculated with commercially available software (OriginPro 9.0G) and yielded the half-lives t1/2 of the prodrugs via one determination.
Enzymatic hydrolysis of compounds 6,7 with pig liver esterase (PLE):
10 µL 50 mM DMSO stock solution of compounds 6,7 was diluted to 6.0 mM hydrolysis solution by addition of 31.7 µL DMSO and 41.7 µL ultrapure water. Then 83.3 µl of the 6.0 mM solution was diluted with 125 µL DMSO and 833 µl 50 mM PBS buffer (pH 7.3).
The reaction was started by addition of 62.5 µl of PLE in PBS buffer (3 mg/mL) and the mixture was incubated with 800 rpm at 37 °C in a thermomixer. At different times, aliquots (100 µl) were taken and the reaction was stopped by addition to […] MeOH. The mixture was kept for 5 min on ice followed by centrifugation for 5 min (13000 rpm). The mixture was filtered (Chromafil RC-20/15 MS, […]) and stored in liquid nitrogen. When testing, the samples were defrosted and injection volume with 80 µL was used for HPLC […]
as §1, §2, §3

[5] = wild-type CEM/0 cells, HIV-1, mean±SD, n=2-3

| half-life at 0.92 mM [2] [h] | EC50 [3, 5] [nM] | half-life at 0.45 mM [4] [h] | SMILES | CC50 [1] [nM] | PBS pH 7.3 t 1/2 [2] | EC50 [3] [nM] | cleavage of the alkyl residue by esterase [4] | calculated half-life in PBS hydrolysis (decrease by thymine formation, cleavage of the glycosidic bond) ([2]; PBS pH 7.3) |
| --- | --- | --- | --- | --- | --- | --- | --- | --- |
| 237 | 180 ± 90 | 0.135 | CCCCCCCCCCCCCCCCCCOP(=O)(OCc1ccc(OC(=O)CCCC)cc1)OP(=O)(O)OP(=O)(O)OCC1C=CC(n2cc(C)c(=O)[nH]c2=O)O1 (stereo not shown) [6 cz, γ‐(AB‐C4,alkyl‐C18)‐d4TTP] | 13000 ± 1000 |  |  |  |  |
|  |  |  | CCCCOP(=O)(O)OP(=O)(O)OP(=O)(O)OCC1C=CC(n2cc(C)c(=O)[nH]c2=O)O1 (stereo not shown) [7 w, γ‐C4‐d4TTP] | > 100000 | n.h.^[c] | 950 ± 510 | no cleavage of the alkyl residue |  |
| 198 | 330 ± 110 | 0.425 | CCCCCCCCCCCCCCCC(=O)Oc1ccc(COP(=O)(OCCCC)OP(=O)(O)OP(=O)(O)OCC2C=CC(n3cc(C)c(=O)[nH]c3=O)O2)cc1 (stereo not shown) [6 ew, γ‐(AB‐C15,alkyl‐C4)‐d4TTP] | 21000 ± 2000 |  |  |  |  |
|  |  |  | Cc1cn(C2C=CC(COP(=O)(O)OP(=O)(O)OP(=O)(O)O)O2)c(=O)[nH]c1=O (stereo not shown) [2 t, d4TTP, reference compound] | > 100000 |  | 1050 ± 350 |  |  |
|  |  |  | CCCCCCCCCCCCCCCCCCOP(=O)(O)OP(=O)(O)OP(=O)(O)OCC1C=CC(n2cc(C)c(=O)[nH]c2=O)O1 (stereo not shown) [7 z, γ‐C18‐d4TTP] | 86000 ± 3000 | n.h.^[c] | 110 ± 42 | no cleavage of the alkyl residue | about 1500 h |
